Source: patent publication US20070010459A1, “Application of asiatic acid and its derivatives to treat pulmonary fibrosis” (priority 2005, published 2007)
Converted amounts (≈) assume the structure as drawn. One block for each compound: values may come before it.

Experiments:
[1] = system: pulmonary fibrosis induced by bleomycin in rat; assay: Asiatic acid in bleomycin-induced pulmonary fibrosis rat model; type: in vivo, SD male rats; conditions: for Lung CT scanning results: after 28 days; for Lung Weight: mean
Source text: The pulmonary fibrosis animal model was induced by bleomycin in rat according to the methods described by Lazo J S, Hoyt D G, Sebti S M, Pitt B R. in Pharmacol Ther. 1990: 47:347-58. In this article, praquat, bleomycin and amiodrone are three routinely used chemical agent to induce lung fibrosis is rodents, e.g. mice, rat and Chinese hamsters as well as primates, e.g. baboon and cynomolgous monkey etc. there are also reports describing using rabbit or dog as model animal for such study. Different groups were able to generate lung fibrosis in animal models through different administration routes. For example, 3 various pulmonary fibrosis animal models using Co^60 to radiate rat, bleomycin or CCl4 injection into abdominal cavity of mice or rat respectively were generated. […] Specifically, diffusive stromal lung fibrosis model induced by tracheal bleomycin dripping is the most commonly used animal model. The advantage of this method is that the model can be obtained with once bleomycin dripping without repeated venous or abdominal injections, therefore limiting the influences to other organs caused by systematic administrations. It also lowers the experimental cost. The development of pulmonary fibrosis from alveolitis can be observed in 4 weeks, which is very similar to the pulmonary fibrosis pathological development in human being.
1. Animal: SD male rats with weight raging between 200-250 g, purchased from SLAC.
3. Dosage: Asiatic acid, 3, 9, […], po for 28 days.
Male SD rats were lay down flat on operating table and anesthetize with 3% Secobarbital. The trachea was exposed after sterilization of cervical part with alcohol. The needle was then inserted into tracheal cartilage interspace. Bleomycin at 5 mg/kg was dipped in. Afterwards, the rats were reared to evenly distribute bleomycin in the lung. The trachea was then sutured. […] The regimen was initiated on the second day. Sham-operated and untreated group received saline. After 28 days of treatment, lung weight, hydroyproline content, pathological section and CT scan were measured or conducted.
After 28 days on asiatic acid, rats were sacrificed and dissected. The body and lung weight were measured respectively and used to calculate lung weigh coefficient.
After 28 days on Asiatic acid, hydroxyproline content in lung was measured. The results are as follows:
After 28 days on asiatic acid, lung CT scans were performed to each group of experimental rats.
After 28 days on asiatic acid, the rats were sacrificed and dissected. Both lungs were harvested. The specimen were embedded and fixed then subjected to HE staining. The focus of infection were observed under microscope with ⅓, ⅔ and 3/3 Vf*10 to conduct semi-quantative analysis.

[2] = system: primary culture of mice fibroblast; assay: bFGF-stimulated proliferation of primary fibroblast culture; type: cell-based; conditions: tested at 25, 12.5, 6.25, 3.125 or 1.56 μg
Procedure: Using bFGF (0.5 µg/ml), the proliferation of primary culture of mice fibroblast with the presence of asiaticoside or asiatic acid at 25, 12.5, 6.25, 3.125 or 1.56 μg respectively was assessed.

[3] = Pharmacokinetics, tissue distribution and excretion of asiaticoside; type: in vivo, rats; conditions: rat, in vivo, 100 mg/kg
Procedure: Three doses of asiaticoside (10, 33, 100 mg/kg) were gavaged to rats (n=6) and canines (n=4). After dosing, blood was sampled up to 120 or 216 hours in rats and canines respectively. Tissue distribution and excretion studies in rats were carried out with the highest dose.
The respective asiaticoside and asiatic acid in the same bio-matrix were detected by LC/MS/MS and GC/MS. Because the secondary peak resembled a plasma concentration-time profile in both rat and canine rather than conventional compartment fitting, statistical moment analysis was used in calculating pharmacokinetic parameters. […] In addition to the targeted organ, both asiaticoside and asiatic acid were distributed in some other organs, which could be the sign to expand clinical indications.

[4] = background statement, see U.S. Pat. No. 6,417,349; cited from earlier work
[5] = system: rats with pulmonary fibrosis induced by bleomycin; assay: Pharmacodynamics of asiaticoside in rats with pulmonary fibrosis induced by bleomycin; type: in vivo
Procedure: The rats with lung fibrosis were induced by bleomycin through trachea administration and then treated with asiaticoside. […] The study regimen lasted for 28 days. The lung weight coefficient and hydroyproline (HXP) content were measured on day 2 and 8 after the formation of animal model. CT scan, pathology and serum ECM content measurements were conducted on day 14, 21 and 28 days respectively.

[6] = system: radiation pneumonia and subsequent pulmonary fibrosis induced by Cobalt-60 radiation; assay: Pharmacodynamics of asiaticoside in radiation pneumonia induced by Cobalt-60 radiation; type: in vivo, rats; set-up: Type IV (collagen content comparison, serum ECM) / Laminin (serum ECM) / Hyaluronic Acid (serum ECM): unit not given here
Procedure: Radiation pneumonia and subsequent pulmonary fibrosis in rats was induced by Cobalt-60 radiation. The efficacies were assessed by the lung weight coefficient, HXP content, serum ECM measurement, CT scan and pathological examinations.

[7] = first experiment, asiatic acid high dose 27 mg/kg po 28 days
[8] = first experiment, asiatic acid low dose 3 mg/kg po 28 days
[9] = first experiment, asiatic acid medium dose 9 mg/kg po 28 days
[10] = second experiment, asiatic acid high dose 27 mg/kg po 28 days
[11] = second experiment, asiatic acid low dose 3 mg/kg po 28 days
[12] = second experiment, asiatic acid medium dose 9 mg/kg po 28 days
[13] = third experiment, asiatic acid high dose 27 mg/kg po 28 days
[14] = third experiment, asiatic acid low dose 3 mg/kg po 28 days
[15] = third experiment, asiatic acid medium dose 9 mg/kg po 28 days
[16] = first experiment, dexmethasone 0.6 mg/kg po 28 days
[17] = second experiment, dexmethasone 0.6 mg/kg po 28 days
[18] = third experiment, dexmethasone 0.6 mg/kg po 28 days
[19] = dexamethasone 0.6 mg/kg daily oral, 28 days

Tissue accumulation [3]: no apparent tissue accumulation
SMILES: C[C@H]1[C@H](C)CC[C@]2(C(=O)O)CC[C@]3(C)C(=CC[C@@H]4[C@@]5(C)C[C@@H](O)[C@H](O)[C@@](C)(CO)[C@@H]5CC[C@]43C)[C@H]12 [Asiatic acid, asiatic acid]
CT: therapeutic effect in acute phase of pulmonary fibrosis ([1]; acute phase): didn't display any therapeutic effects | Lung CT scanning results ([1]; asiatic acid high dose 27 mg/kg po): Light glass infiltration, part of lobules consolidates. | Lung CT scanning results ([1]; asiatic acid low dose 3 mg/kg po): Consolidation in lobules, bronchiectasis, honeycomb | Pathology results (HE staining of lungs) ([1]; asiatic acid high, medium and low dose, 28 days, not dose dependent): light fibroplasias in alveoli pulmonis diaphragm, light lymphocyte infiltration and compensatory emphysema | Lung weight coefficient [1, 7]: 0.70 | Lung Weight [1, 7]: 2.17 g | Lung weight coefficient [1, 8]: 0.66 | Lung Weight [1, 8]: 1.97 g | Lung weight coefficient [1, 9]: 0.66 | Lung Weight [1, 9]: 2.02 g | HX content (hydroxyproline content in lung) X ± SD ([1]; first experiment, high dose 27 mg/kg po * 28): 2.39 ± 0.44 mg/g | HX content (hydroxyproline content in lung) X ± SD ([1]; first experiment, low dose 3 mg/kg po * 28): 3.43 ± 0.62 mg/g | HX content (hydroxyproline content in lung) X ± SD ([1]; first experiment, medium dose 9 mg/kg po * 28): 2.36 ± 0.87 mg/g | CT: therapeutic effect in mid to late phase of the disease ([1]; mid to late phase): can significantly relive the extent of fibrosis in lungs | Overall effect on lung fibrosis ([1]; rats receiving bleomycin induction, direct administration): can relieve lung fibrosis | Lung weight coefficient [1, 10]: 0.65 | Lung Weight [1, 10]: 2.26 g | Lung weight coefficient [1, 11]: 0.76 | Lung Weight [1, 11]: 2.34 g | Lung weight coefficient [1, 12]: 0.70 | Lung Weight [1, 12]: 2.21 g | HX content (hydroxyproline content in lung) X ± SD ([1]; second experiment, high dose 27 mg/kg po * 28): 2.37 ± 0.41 mg/g | HX content (hydroxyproline content in lung) X ± SD ([1]; second experiment, low dose 3 mg/kg po * 28): 3.41 ± 0.60 mg/g | HX content (hydroxyproline content in lung) X ± SD ([1]; second experiment, medium dose 9 mg/kg po * 28): 2.36 ± 0.79 mg/g | Lung weight coefficient [1, 13]: 0.70 | Lung Weight [1, 13]: 2.17 g | Lung weight coefficient [1, 14]: 0.66 | Lung Weight [1, 14]: 1.97 g | Lung weight coefficient [1, 15]: 0.66 | Lung Weight [1, 15]: 2.02 g | HX content (hydroxyproline content in lung) X ± SD ([1]; third experiment, high dose 27 mg/kg po * 28): 2.30 ± 0.46 mg/g | HX content (hydroxyproline content in lung) X ± SD ([1]; third experiment, low dose 3 mg/kg po * 28): 3.42 ± 0.57 mg/g | HX content (hydroxyproline content in lung) X ± SD ([1]; third experiment, medium dose 9 mg/kg po * 28): 2.71 ± 0.44 mg/g | IC50 ([2]; Mus musculus, Fibroblast, bFGF, read-out: IC50, growth inhibition of fibroblast treated with bFGF): 137 µg/mL (≈ 280 µM) | Inhibitory activity on fibroblast proliferation ([2]; bFGF 0.5 g/ml): growth inhibitory roles to fibroblast treated with bFGF to certain extent | Solubility [4]: insoluble in water

SMILES: C[C@@H]1C[C@H]2[C@@H]3CCC4=CC(=O)C=C[C@]4(C)[C@@]3(F)[C@@H](O)C[C@]2(C)[C@@]1(O)C(=O)CO [Dexmethasone, Dexamethasone, reference compound]
Lung CT scanning results ([1]; dexmethasone 0.6 mg/kg po): Light hyperplasy in lung striation. Light consolidation | HX content (hydroxyproline content in lung) X ± SD ([1]; first experiment, 0.6 mg/kg po * 28): 2.34 ± 9.54 mg/g | Lung weight coefficient [1, 16]: 0.72 | Lung Weight [1, 16]: 1.90 g | HX content (hydroxyproline content in lung) X ± SD ([1]; second experiment, 0.6 mg/kg po * 28): 2.41 ± 0.45 mg/g | Lung weight coefficient [1, 17]: 0.69 | Lung Weight [1, 17]: 1.62 g | HX content (hydroxyproline content in lung) X ± SD ([1]; third experiment, 0.6 mg/kg po * 28): 2.47 ± 0.45 mg/g | Lung weight coefficient [1, 18]: 0.72 | Lung Weight [1, 18]: 1.90 g | CT scan findings ([5]; dexamethasone 0.6 mg/kg): ground glass infiltration and fibrotic streaks were found in both lungs | ET-1 (cytokine content) ([5]; dexamethasone 0.6 mg/kg): 257.86 ± 20.81 | Hyaluronic Acid (serum ECM) ([5]; dexamethasone 0.6 mg/kg): 232.97 ± 101.24 | Laminin (serum ECM) ([5]; dexamethasone 0.6 mg/kg): 48.41 ± 14.12 | PIIIP (collagen content comparison, serum ECM) ([5]; dexamethasone 0.6 mg/kg): 19.59 ± 6.24 | Pathology ([5]; dexamethasone 0.6 mg/kg): a light inflammatory reaction caused by lymphocyte was found with inflammatory cell infiltration seen in the alveoli pulmonis | TNF-α (cytokine content) ([5]; dexamethasone 0.6 mg/kg): 6.50 ± 0.73 | TNF-[…] (cytokine content) ([5]; dexamethasone 0.6 mg/kg): 0.075 ± 0.010 | Type IV (collagen content comparison, serum ECM) ([5]; dexamethasone 0.6 mg/kg): 10.71 ± 4.94 | HXP content [5, 19]: 19.32 ± 4.35 mg/g | Lung weight coefficient [5, 19]: 0.72% | CT scan findings ([6]; dexamethasone group): mild ground glass infiltration and fibrotic streaks in the right lung with right base atelectasis | HXP content ([6]; dexamethasone treated): 36.42 ± 2.74 mg/g | Hyaluronic Acid (serum ECM) ([6]; dexamethasone treated): 195.12 ± 55.89 | Laminin (serum ECM) ([6]; dexamethasone treated): 47.91 ± 8.04 | Lung weight coefficient ([6]; dexamethasone treated): 0.42% | PIIIP (collagen content comparison, serum ECM) ([6]; dexamethasone treated): 14.51 ± 5.61 | Type IV (collagen content comparison, serum ECM) ([6]; dexamethasone treated): 12.65 ± 2.87
